Key:
[1] = tested on: pentagastrin-induced gastric acid secretion; experiment: Inhibition of the pentagastrin-induced gastric acid secretion in dogs; type: in vivo, Beagle dogs
Method: (§1) After being starved for 24 hours, Beagle dogs of both sexes weighing 6.3 to 11.9 kg were anaesthetized with sodium pentobarbital (30 mg/kg i.v.). The trachea and femoral veins on both sides were cannulated. After laparotomy the pylorus was ligated, a glass cannula was placed into the anterior side of the stomach and fixed by a purse string suture to the stomach wall, abdominal wall and abdominal skin. A rubber probe was introduced to the stomach through the mouth. The animal thus prepared was put onto a Pavlov's frame. The steady sleep was ensured by the infusion of sodium pentobarbital (5 mg/kg/hour). The stomach was washed with lukewarm water and emptied. The secretion-inducing agents (histamine, pentagastrin, carbachol) were administered in a volume of 12 ml/hour for 2 hours in the following doses:
(§2) After 2 hours the infusion was stopped, the volume of the gastric juice produced was measured and its acid content was determined by titration with 0.1N NaOH by using Topfer's indicator. The compound of Example 1 was administered in a 25 mg/kg i.p. dose to the animals by 30 minutes before starting the infusion.

[2] = tested on: histamine-induced gastric acid secretion; experiment: Inhibition of the histamine-induced gastric acid secretion in dogs; type: in vivo, Beagle dogs
Method: as §1, §2

[3] = tested on: carbachol-induced gastric acid secretion; experiment: Inhibition of the carbachol-induced gastric acid secretion in dogs; type: in vivo, Beagle dogs
Method: as §1, §2

[4] = tested on: pentagastrin-induced gastric acid secretion; experiment: Inhibition of the pentagastrin-induced gastric acid secretion in rats; type: in vivo, male OFA rats; conditions: for Gastric acid, change / Gastric juice, change: vs control; for Gastric juice, treated: pentagastrin 0.05 mg/kg/hour; for ED50: Rattus norvegicus, ip, pentagastrin-induced, dose column i.p.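 For Gastric acid, treated: dosed 30 min before a 5 hour experiment.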
Method: After being starved for 24 hours, male OFA rats weighing 250 to 320 g were anaestethized by 40% urethane (0.5 ml/100 g), then the trachea and jugular vein were cannulated (10 animals were used for each dose). A glass cannula was inserted to the stomach from the direction of the pylorus. The stomach was washed with lukewarm water and then purified by air blown through. The gastric acid secretion was induced by an infusion of histamine (5 mg/kg/hour), or pentagastrin (0.05 mg/kg/hour) or carbachol (0.01 mg/kg/hour), respectively. […]

[5] = tested on: acetic acid-induced chronic ulcer; experiment: Recovery-influencing effect on the acetic acid-induced chronic ulcer; type: in vivo, female RG-Wistar rats; conditions: for increase in the recovery: 15 mg/kg oral dose, daily twice for 15 days
Method: After anaesthesia by ether and laparotomy, 50 μl of 20% acetic acid were injected into the stomach wall of female RG-Wistar rats. After 5 days the animals were orally treated with the compounds to be tested daily twice for 15 days. On the 16th day the animals were killed by ether and the size of the ulcers appearing on the stomach was measured. The grade of recovery was defined in relation to the control group.

[6] = 25 mg/kg i.p. + Pentagastrin 0.03 mg/kg/hr
[7] = 25 mg/kg i.p. + Histamine 0.1 mg/kg/hr
[8] = 25 mg/kg i.p. + Carbachol 0.02 mg/kg/hr

SMILES: Cc1cc(=O)[nH]c(SCc2ccccc2N(C)C)n1 [Example 1, 2-(2-dimethylaminobenzyl)thio-6-methyl-4(3H)-pyrimidinone]
- Gastric acid volume [1, 6]: 1.43 ± 0.77 ml/kg/2 hr
- Gastric acid, change [1, 6]: -76%
- Gastric juice volume [1, 6]: 2.90 ± 0.48 ml/kg/2 hr
- Gastric juice, change [1, 6]: -54%
- inhibition of gastric acid secretion, in words ([1]; dogs compared with rats, pentagastrin): with the same efficiency in dogs as in rats
- Gastric acid volume [2, 7]: 3.90 ml/kg/2 hr
- Gastric acid, change [2, 7]: -75%
- Gastric juice volume [2, 7]: 3.85 ml/kg/2 hr
- Gastric juice, change [2, 7]: -69%
- inhibition of gastric acid secretion, in words ([2]; dogs compared with rats, histamine): with the same efficiency in dogs as in rats
- Gastric acid volume [3, 8]: 1.84 ± 0.74 ml/kg/2 hr
- Gastric acid, change [3, 8]: -80%
- Gastric juice volume [3, 8]: 2.55 ± 0.79 ml/kg/2 hr
- Gastric juice, change [3, 8]: -69%
- inhibition of gastric acid secretion, in words ([3]; dogs compared with rats, carbachol): with the same efficiency in dogs as in rats
- Gastric acid, treated ([4]; 6.25 mg/kg i.p.): 1.79 mL
- Gastric acid, change ([4]; 6.25 mg/kg i.p.): -34%
- Gastric juice, change ([4]; 6.25 mg/kg i.p.): -31%
- Gastric juice, treated ([4]; 6.25 mg/kg i.p.): 1.26 mL
- Gastric acid, treated ([4]; 12.5 mg/kg i.p.): 1.21 mL
- Gastric acid, change ([4]; 12.5 mg/kg i.p.): -55%
- Gastric juice, change ([4]; 12.5 mg/kg i.p.): -51%
- Gastric juice, treated ([4]; 12.5 mg/kg i.p.): 0.90 mL
- Gastric acid, treated ([4]; 25 mg/kg i.p.): 0.51 mL
- Gastric acid, change ([4]; 25 mg/kg i.p.): -81%
- Gastric juice, change ([4]; 25 mg/kg i.p.): -78%
- Gastric juice, treated ([4]; 25 mg/kg i.p.): 0.41 mL
- ED50 [4]: 9.5 mg/kg
- increase in the recovery [5]: 45%
- recovery from developed gastric ulcers, in words ([5]; compared with reference drug): better results were achieved in the recovery from developed gastric ulcers

SMILES: CN(C)c1ccccc1C[S+]([O-])c1nc2ccccc2[nH]1 (centres unmarked) [NC-1300, 2-[(2-dimethylaminobenzyl)sulfinyl]-1H-benzimidazole, reference compound]
- Gastric acid, treated ([4]; 5 mg/kg i.p.): 1.25 mL
- Gastric acid, change ([4]; 5 mg/kg i.p.): -23%
- Gastric juice, change ([4]; 5 mg/kg i.p.): -26%
- Gastric juice, treated ([4]; 5 mg/kg i.p.): 0.92 mL
- Gastric acid, treated ([4]; 10 mg/kg i.p.): 0.47 mL
- Gastric acid, change ([4]; 10 mg/kg i.p.): -74%
- Gastric juice, change ([4]; 10 mg/kg i.p.): -70%
- Gastric juice, treated ([4]; 10 mg/kg i.p.): 0.35 mL
- Gastric acid, treated ([4]; 20 mg/kg i.p.): 0.32 mL
- Gastric acid, change ([4]; 20 mg/kg i.p.): -82%
- Gastric juice, change ([4]; 20 mg/kg i.p.): -77%
- Gastric juice, treated ([4]; 20 mg/kg i.p.): 0.27 mL
- ED50 [4]: 7.9 mg/kg
- increase in the recovery [5]: 37%
